Assay results taken from ChEMBL document CHEMBL3734677, “EVALUATION OF AROMATIC 6-SUBSTITUTED THIENOPYRIMIDINES AS SCAFFOLDS AGAINST PARASITES THAT CAUSE TRYPANOSOMIASIS, LEISHMANIASIS, AND MALARIA” (Medchemcomm, 2015).

Test system: Trypanosoma brucei brucei
Test: Antiparasitic activity against bloodstream Trypanosoma brucei bruei CA427 after 48 hrs by cytometry
Assay type: functional, organism-based
Settings: CA427, 48 h

Fc1cccc(COc2ccc(Nc3ncnc4cc(C#C[C@@H]5CCCN5)sc34)cc2Cl)c1
EC50: 260 nM
